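A five-concentration, 48-hour dose response in 96-well plates underlies each endpoint, interpolated linearly between surrounding concentrations. TGI: total growth inhibition.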
Key:
Test in all cases: NCI anticancer screen, dose series, 48 h
SF-295 CNS = system: SF-295 CNS
IGROV1 ovarian = system: IGROV1 ovarian
SW-620 colon = system: SW-620 colon
KM20L2 colon = system: KM20L2 colon
NCI-H226 lung = system: NCI-H226 lung
SNB-19 CNS = system: SNB-19 CNS
DMS 273 small cell lung = system: DMS 273 small cell lung
HL-60(TB) leukemia = system: HL-60(TB) leukemia
HOP-18 NSCLC = system: HOP-18 NSCLC
SF-268 CNS = system: SF-268 CNS
SK-OV-3 ovarian = system: SK-OV-3 ovarian
K-562 leukemia = system: K-562 leukemia
EKVX NSCLC = system: EKVX NSCLC
TK-10 renal = system: TK-10 renal
UO-31 renal = system: UO-31 renal
NCI-H23 lung = system: NCI-H23 lung
SF-539 CNS = system: SF-539 CNS
SK-MEL-5 melanoma = system: SK-MEL-5 melanoma
A498 renal = system: A498 renal
SNB-78 CNS = system: SNB-78 CNS
SNB-75 CNS = system: SNB-75 CNS
OVCAR-5 ovarian = system: OVCAR-5 ovarian
HOP-92 NSCLC = system: HOP-92 NSCLC
UACC-257 melanoma = system: UACC-257 melanoma
HCT-15 colon = system: HCT-15 colon
LXFL 529 NSCLC = system: LXFL 529 NSCLC
OVCAR-8 ovarian = system: OVCAR-8 ovarian
HCT-116 colon = system: HCT-116 colon
CCRF-CEM leukemia = system: CCRF-CEM leukemia
MOLT-4 leukemia = system: MOLT-4 leukemia
UACC-62 melanoma = system: UACC-62 melanoma
OVCAR-4 ovarian = system: OVCAR-4 ovarian
NCI-H460 lung = system: NCI-H460 lung
KM12 colon = system: KM12 colon
786-0 renal = system: 786-0 renal
RXF 393 renal = system: RXF 393 renal
COLO 205 colon = system: COLO 205 colon
DMS 114 small cell lung = system: DMS 114 small cell lung
ACHN renal = system: ACHN renal
RPMI-8226 leukemia = system: RPMI-8226 leukemia
HCC-2998 colon = system: HCC-2998 colon
HOP-62 NSCLC = system: HOP-62 NSCLC
LOX IMVI melanoma = system: LOX IMVI melanoma
CAKI-1 renal = system: CAKI-1 renal
HT29 colon = system: HT29 colon
OVCAR-3 ovarian = system: OVCAR-3 ovarian
U251 CNS = system: U251 CNS
MALME-3M melanoma = system: MALME-3M melanoma
NCI-H522 lung = system: NCI-H522 lung
DLD-1 colon = system: DLD-1 colon
M14 melanoma = system: M14 melanoma
M19-MEL melanoma = system: M19-MEL melanoma
A549 NSCLC = system: A549 NSCLC
SK-MEL-2 melanoma = system: SK-MEL-2 melanoma
SK-MEL-28 melanoma = system: SK-MEL-28 melanoma
XF 498 CNS = system: XF 498 CNS
SR leukemia = system: SR leukemia
SN12C renal = system: SN12C renal

With `Cc1c2nc3ccccc3sc-2cc(=O)c1C` the TGI (SF-295 CNS) was over 100 µM, the TGI (IGROV1 ovarian) was over 100 µM and the TGI (SW-620 colon) was over 100 µM. It also gave a TGI (KM20L2 colon) of over 100 µM, a TGI (NCI-H226 lung) of over 100 µM and a TGI (SNB-19 CNS) of over 100 µM. The TGI (DMS 273 small cell lung) was over 100 µM, the TGI (HL-60(TB) leukemia) was over 85.5 µM and the TGI (HOP-18 NSCLC) was over 100 µM. The TGI (SF-268 CNS) was over 100 µM, the TGI (SK-OV-3 ovarian) was over 100 µM and the TGI (K-562 leukemia) was over 91.6 µM. It also gave a TGI (EKVX NSCLC) of over 100 µM, a TGI (TK-10 renal) of over 100 µM and a TGI (UO-31 renal) of over 100 µM. For the same molecule, the TGI (NCI-H23 lung) was over 100 µM, the TGI (SF-539 CNS) was over 100 µM and the TGI (SK-MEL-5 melanoma) was over 100 µM. The TGI (A498 renal) was over 100 µM, the TGI (SNB-78 CNS) was over 100 µM and the TGI (SNB-75 CNS) was over 100 µM. It also gave a TGI (OVCAR-5 ovarian) of over 100 µM, a TGI (HOP-92 NSCLC) of over 100 µM and a TGI (UACC-257 melanoma) of over 46.8 µM. The TGI (HCT-15 colon) was over 100 µM, the TGI (LXFL 529 NSCLC) was over 100 µM and the TGI (OVCAR-8 ovarian) was over 100 µM. The TGI (HCT-116 colon) was over 100 µM, the TGI (CCRF-CEM leukemia) was over 100 µM and the TGI (MOLT-4 leukemia) was over 100 µM. For the same molecule, the TGI (UACC-62 melanoma) was 70.3 µM, the TGI (OVCAR-4 ovarian) was over 100 µM and the TGI (NCI-H460 lung) was over 100 µM. It also gave a TGI (KM12 colon) of over 100 µM, a TGI (786-0 renal) of over 100 µM and a TGI (RXF 393 renal) of over 100 µM. It also gave a TGI (COLO 205 colon) of over 89.2 µM, a TGI (DMS 114 small cell lung) of 79.7 µM and a TGI (ACHN renal) of over 100 µM. It also gave a TGI (RPMI-8226 leukemia) of over 100 µM, a TGI (HCC-2998 colon) of over 100 µM and a TGI (HOP-62 NSCLC) of over 100 µM. For the same molecule, the TGI (LOX IMVI melanoma) was over 100 µM, the TGI (CAKI-1 renal) was over 100 µM and the TGI (HT29 colon) was over 100 µM. For the same molecule, the TGI (OVCAR-3 ovarian) was over 90.6 µM, the TGI (U251 CNS) was over 100 µM and the TGI (MALME-3M melanoma) was over 100 µM. The TGI (NCI-H522 lung) was over 100 µM, the TGI (DLD-1 colon) was over 100 µM and the TGI (M14 melanoma) was over 100 µM. The TGI (M19-MEL melanoma) was 29.7 µM, the TGI (A549 NSCLC) was over 100 µM and the TGI (SK-MEL-2 melanoma) was over 25.2 µM. For the same molecule, the TGI (SK-MEL-28 melanoma) was over 100 µM and the TGI (XF 498 CNS) was over 100 µM.

For `CN1C(=O)N(C)C(N2CCCC2)c2c1nc1ccccn1c2=O` (stereo unspecified), the TGI (SF-295 CNS) was over 100 µM, the TGI (IGROV1 ovarian) was over 100 µM and the TGI (SW-620 colon) was over 100 µM. It also gave a TGI (KM20L2 colon) of over 100 µM, a TGI (NCI-H226 lung) of over 100 µM and a TGI (SNB-19 CNS) of over 100 µM. For the same molecule, the TGI (DMS 273 small cell lung) was over 100 µM, the TGI (HL-60(TB) leukemia) was over 100 µM and the TGI (HOP-18 NSCLC) was over 100 µM. The TGI (SF-268 CNS) was over 100 µM, the TGI (SK-OV-3 ovarian) was over 100 µM and the TGI (K-562 leukemia) was over 100 µM. It also gave a TGI (EKVX NSCLC) of over 100 µM, a TGI (TK-10 renal) of over 100 µM and a TGI (SR leukemia) of over 100 µM. It also gave a TGI (UO-31 renal) of over 100 µM, a TGI (NCI-H23 lung) of over 100 µM and a TGI (SF-539 CNS) of over 100 µM. For the same molecule, the TGI (A498 renal) was over 100 µM, the TGI (SNB-78 CNS) was over 100 µM and the TGI (SNB-75 CNS) was over 100 µM. The TGI (HOP-92 NSCLC) was over 100 µM, the TGI (UACC-257 melanoma) was over 100 µM and the TGI (HCT-15 colon) was over 100 µM. The TGI (LXFL 529 NSCLC) was over 100 µM, the TGI (OVCAR-8 ovarian) was over 100 µM and the TGI (HCT-116 colon) was over 100 µM. For the same molecule, the TGI (CCRF-CEM leukemia) was over 100 µM, the TGI (MOLT-4 leukemia) was over 100 µM and the TGI (UACC-62 melanoma) was over 100 µM. It also gave a TGI (OVCAR-4 ovarian) of over 100 µM, a TGI (NCI-H460 lung) of over 100 µM and a TGI (KM12 colon) of over 100 µM. For the same molecule, the TGI (786-0 renal) was over 100 µM, the TGI (RXF 393 renal) was over 100 µM and the TGI (COLO 205 colon) was over 100 µM. The TGI (DMS 114 small cell lung) was over 100 µM, the TGI (ACHN renal) was over 100 µM and the TGI (RPMI-8226 leukemia) was over 100 µM. For the same molecule, the TGI (HCC-2998 colon) was over 100 µM, the TGI (HOP-62 NSCLC) was over 100 µM and the TGI (LOX IMVI melanoma) was over 100 µM. It also gave a TGI (HT29 colon) of over 100 µM, a TGI (OVCAR-3 ovarian) of over 100 µM and a TGI (U251 CNS) of over 100 µM. It also gave a TGI (MALME-3M melanoma) of over 100 µM, a TGI (SN12C renal) of over 100 µM and a TGI (NCI-H522 lung) of over 100 µM. It also gave a TGI (DLD-1 colon) of over 100 µM, a TGI (M14 melanoma) of over 100 µM and a TGI (M19-MEL melanoma) of over 100 µM. The TGI (A549 NSCLC) was over 100 µM, the TGI (SK-MEL-2 melanoma) was over 100 µM and the TGI (SK-MEL-28 melanoma) was over 100 µM. The TGI (XF 498 CNS) was over 100 µM.

`CCOC(=O)C1(C(=O)OCC)OC(=O)NC2=C1CCCC2` showed a TGI (SF-295 CNS) of over 100 µM, a TGI (IGROV1 ovarian) of over 100 µM and a TGI (SW-620 colon) of over 100 µM. It also gave a TGI (KM20L2 colon) of over 100 µM, a TGI (SNB-19 CNS) of over 100 µM and a TGI (DMS 273 small cell lung) of over 100 µM. For the same molecule, the TGI (HL-60(TB) leukemia) was over 100 µM, the TGI (HOP-18 NSCLC) was over 100 µM and the TGI (SF-268 CNS) was over 100 µM. For the same molecule, the TGI (SK-OV-3 ovarian) was over 100 µM, the TGI (K-562 leukemia) was over 100 µM and the TGI (EKVX NSCLC) was over 100 µM. The TGI (TK-10 renal) was over 100 µM, the TGI (UO-31 renal) was over 100 µM and the TGI (NCI-H23 lung) was over 100 µM. For the same molecule, the TGI (SF-539 CNS) was over 100 µM, the TGI (SK-MEL-5 melanoma) was over 100 µM and the TGI (A498 renal) was over 100 µM. It also gave a TGI (SNB-78 CNS) of over 100 µM, a TGI (SNB-75 CNS) of over 100 µM and a TGI (OVCAR-5 ovarian) of over 100 µM. For the same molecule, the TGI (HOP-92 NSCLC) was over 100 µM, the TGI (UACC-257 melanoma) was over 100 µM and the TGI (LXFL 529 NSCLC) was over 100 µM. For the same molecule, the TGI (OVCAR-8 ovarian) was over 100 µM, the TGI (HCT-116 colon) was over 100 µM and the TGI (CCRF-CEM leukemia) was over 100 µM. It also gave a TGI (MOLT-4 leukemia) of over 100 µM, a TGI (NCI-H460 lung) of over 100 µM and a TGI (KM12 colon) of over 100 µM. For the same molecule, the TGI (786-0 renal) was over 100 µM, the TGI (RXF 393 renal) was over 100 µM and the TGI (COLO 205 colon) was over 100 µM. For the same molecule, the TGI (DMS 114 small cell lung) was over 100 µM, the TGI (ACHN renal) was over 100 µM and the TGI (RPMI-8226 leukemia) was over 100 µM. The TGI (HCC-2998 colon) was over 100 µM, the TGI (HOP-62 NSCLC) was over 100 µM and the TGI (LOX IMVI melanoma) was over 100 µM. It also gave a TGI (HT29 colon) of over 100 µM, a TGI (OVCAR-3 ovarian) of over 100 µM and a TGI (U251 CNS) of over 100 µM. It also gave a TGI (MALME-3M melanoma) of over 100 µM, a TGI (NCI-H522 lung) of over 100 µM and a TGI (DLD-1 colon) of over 100 µM. For the same molecule, the TGI (M19-MEL melanoma) was over 100 µM, the TGI (A549 NSCLC) was over 100 µM and the TGI (SK-MEL-2 melanoma) was over 100 µM. For the same molecule, the TGI (SK-MEL-28 melanoma) was over 100 µM and the TGI (XF 498 CNS) was over 100 µM.
